From publication PMC5451387, “Structural insights into the elevator-like mechanism of the sodium/citrate symporter CitS” (Scientific Reports, 2017)

Biological target: T1, KpCitS (Klebsiella pneumoniae, UniProt P31602)
T1 construct: gene citS; homodimer; TM7-TM8 loop not modelled
T1 sequence (P31602 1-446): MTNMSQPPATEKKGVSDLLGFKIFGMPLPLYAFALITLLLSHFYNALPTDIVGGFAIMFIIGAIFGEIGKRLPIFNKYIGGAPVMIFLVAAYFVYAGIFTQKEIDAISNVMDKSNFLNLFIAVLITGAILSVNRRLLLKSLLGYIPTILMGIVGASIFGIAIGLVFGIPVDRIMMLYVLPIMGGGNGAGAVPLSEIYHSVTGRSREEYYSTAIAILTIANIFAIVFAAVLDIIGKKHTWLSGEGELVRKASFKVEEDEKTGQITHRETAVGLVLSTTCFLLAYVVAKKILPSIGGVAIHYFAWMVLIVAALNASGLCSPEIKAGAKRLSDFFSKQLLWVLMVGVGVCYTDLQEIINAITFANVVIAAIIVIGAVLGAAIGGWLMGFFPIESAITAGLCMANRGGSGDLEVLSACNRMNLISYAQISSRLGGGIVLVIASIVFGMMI
Assay: X-ray crystal structures, […]-4.[…] A
Assay type: binding
Conditions: sodium-containing buffer; bound at the transport-domain site in outward-facing and asymmetric forms; one citrate per protomer

SMILES: O=C(O)CC(O)(CC(=O)O)C(=O)O [citrate]
- X-ray crystal structures, 3.5-4.0 A: Each KpCitS protomer binds one molecule of citrate in the outward-facing and asymmetric conformations
